# Where two headings read alike, the source gives them in different places.
# Key:
# [1] = tested on: A. baumannii Pop1 and Pop2 strains; test: Time kill curves in CAMHB with 0.1 mM PIH; assay type: cell-based, Acinetobacter baumannii
# Experimental: Based on the data of EXAMPLE 1, the bactericidal activity and the resistance development of rifabutin and of fixed rifabutin/polymyxin concentrations was assessed in time-kill curve experiments. […] FIGS. 3 and 4 show kill curve experiments on two different A. baumannii strains (Pop 1 and Pop2) having very different rifabutin MICs.
# Based on the data of EXAMPLE 2, the bactericidal activity and the resistance development of rifabutin/polymyxin B was assessed in time kill curve experiments using a lower concentration of rifabutin and additional strains. Concentrations were fixed at 0.03 mg/L for rifabutin (on average, one thirty-second the rifabutin MIC90), and at 0.125 or 0.06 mg/L for polymyxin B (one fourth and one eighth the fCtrough of polymyxin B).
# Time-kill kinetics were performed in CAMHB supplemented with 0.1 mM PIH medium. Rifabutin was tested at 0.25 mg/L with or without the specified concentration of a polymyxin agent. Samples were taken at 0, 2, 4, 8 and 24 hours in order to determine the colony forming units (cfu). Bactericidal activity is defined as ≥3-log reduction in cfu compared to the cfu present in the inoculum (0 hours).
# [2] = tested on: A. baumannii clinical isolates; test: Rifabutin MIC with a fixed polymyxin concentration, broth microdilution in CAMHB/PIH; assay type: cell-based, Acinetobacter baumannii
# Experimental: (§1) The MIC90 (the maximum Minimal Inhibitory Concentration which inhibits growth of 90% of the strains of a test panel) of rifabutin is 2 or 1 mg/L when tested respectively in RPMI/FCS for broth microdilution or MHA/PIH for agar dilution against a panel of 293 carbapenem-resistant Acinetobacter baumannii (CRAB) (Trebosc V, et al. 2020. In vitro activity of rifabutin against 293 contemporary carbapenem-resistant Acinetobacter baumannii clinical isolates and characterization of rifabutin mode of action and resistance mechanisms. J Antimicrob Chemother. 75(12):3552-3562, incorporated herein by reference). […] At these respective polymyxin concentrations, no strains, 3% of the strains, and <5% of the strains would be susceptible to the respective polymyxin. FIG. 1 illustrates the cumulative index and MIC50 and MIC90 of rifabutin in the presence of members of the polymyxin family of antibiotics at sub MIC (sub trough concentrations) showing the synergistic effect discussed above.
# (§2) In vitro activity of rifabutin against 293 contemporary carbapenem-resistant Acinetobacter baumannii clinical isolates and characterization of rifabutin mode of action and resistance mechanisms. J Antimicrob Chemother. 75(12):3552-3562, incorporated herein by reference in its entirety). […] FIG. 2 illustrates the MIC distribution of rifabutin in the presence of members of the polymyxin family of antibiotics at sub MIC (sub trough concentrations) showing the synergistic effect discussed above.
# The rifabutin MICs in combination with a fixed concentration of the specified polymyxin were determined by broth microdilution method according to the CLSI guideline. The medium used to determine the MICs was cation-adjusted Muller Hinton broth (CAMHB) supplemented with 0.1 mM of pyridoxal isonicotinoyl hydrazone (PIH). […] Accordingly, the MIC values were set at the first lowest rifabutin concentration preventing growth as assessed by visual inspection of the assay plate.
# [3] = tested on: carbapenem-resistant Acinetobacter baumannii (CRAB); conditions: MHA/PIH, cited from earlier work
# [4] = tested on: carbapenem-resistant Acinetobacter baumannii (CRAB); conditions: RPMI/FCS, broth microdilution, panel of 293 CRAB; cited from earlier work
# [5] = tested on: A. baumannii Pop1 and Pop2 strains; test: Rifabutin MIC of the strains used for time-kill curves; assay type: cell-based; conditions: Acinetobacter baumannii
# [6] = tested on: A. baumannii clinical isolates; test: Susceptibility of panel strains to the polymyxin alone; assay type: cell-based, Acinetobacter baumannii; conditions: for number of strains with MIC>2 mg/L towards the polymyxin: polymyxin alone; for strains susceptible to the polymyxin at the fixed concentration: polymyxin alone at 0.125 mg/L
# Experimental: as §1, §2
# [7] = Example 2, colistin or polymyxin B alone at 0.125 or 0.03 mg/L, Pop 1 and Pop2 strains
compound,measurement,setting,value
"CO[C@H]1/C=C/O[C@@]2(C)Oc3c(C)c(O)c4c(c3C2=O)C2=NC3(CCN(CC(C)C)CC3)NC2=C(NC(=O)/C(C)=C\C=C\[C@H](C)[C@H](O)[C@@H](C)[C@@H](O)[C@@H](C)[C@H](OC(C)=O)[C@@H]1C)C4=O [rifabutin, Rifabutin]",bactericidal activity in time-kill curves,"[1]; Example 2, rifabutin alone at 0.25 mg/L, Pop 1 and Pop2 strains",either poorly bactericidal or allow for regrowth
same,bactericidal activity in time-kill curves,"[1]; Example 3, rifabutin alone at 0.03 mg/L, Pop1 and Pop2 strains",either poorly bactericidal or allowed for regrowth
same,strains having a rifabutin MIC≤1 mg/L in the presence of a polymyxin,"[2]; CAMHB/PIH broth microdilution, about one-quarter of the fCtrough of the polymyxin",99%
same,MIC90 of rifabutin in the presence of a polymyxin,"[2]; CAMHB/PIH broth microdilution, with 0.125 mg/L polymyxin B, 0.125 mg/L colistin or 0.03 mg/L SPR206 (about one-quarter of fCtrough)",0.06 to 0.25 µg/mL
same,fold lowering of rifabutin MIC90 in the presence of a polymyxin,[2]; subinhibitory concentrations of a polymyxin antibiotic,up to 32 fold
same,strains in population 1 (rifabutin MICs<0.125 mg/L),[3]; 293 CRAB,72%
same,strains in population 2 (rifabutin MICs≥0.125 to <16 mg/L),[3]; 293 CRAB,27%
same,strains in population 3 (rifabutin MICs≥16 mg/L),[3]; 293 CRAB,1%
same,MIC90 of rifabutin,"[3]; agar dilution, panel of 293 CRAB",1 µg/mL
same,MIC90 of rifabutin,[4],2 µg/mL
same,MIC,[5]; A. baumannii Pop 1 strain of FIG. 3,0.016 µg/mL
same,MIC,[5]; A. baumannii Pop2 strain of FIG. 4,1 µg/mL
same,MIC,"[5]; ATCC17978, Pop 1 strain ATCC 17978",0.008 µg/mL
same,MIC,[5]; Pop 1 strain HUMC1,0.002 µg/mL
same,MIC,[5]; Pop2 strain LAC-4,1 µg/mL
same,MIC,[5]; Pop2 strain UNT238-1,2 µg/mL
SPR206 acetate,bactericidal activity in time-kill curves,"[1]; Example 2, SPR206 alone at 0.03 mg/L, Pop 1 and Pop2 strains",either poorly bactericidal or allow for regrowth
same,number of strains with MIC>2 mg/L towards the polymyxin,[6],18 strains
colistin sulfate,bactericidal activity in time-kill curves,[1]; [7],either poorly bactericidal or allow for regrowth
same,number of strains with MIC>2 mg/L towards the polymyxin,[6],45 strains
same,strains susceptible to the polymyxin at the fixed concentration,[6],3%
polymyxin B sulfate,bactericidal activity in time-kill curves,[1]; [7],either poorly bactericidal or allow for regrowth
same,bactericidal activity in time-kill curves,"[1]; Example 3, polymyxin B alone at 0.125 or 0.06 mg/L, Pop1 and Pop2 strains",either poorly bactericidal or allowed for regrowth
same,number of strains with MIC>2 mg/L towards the polymyxin,[6],40 strains
same,strains susceptible to the polymyxin at the fixed concentration,[6],no strains

# Source: patent US20230364065A1, “ANTIBIOTIC COMBINATION THERAPIES” (BIOVERSYS AG, priority 2022, published 2023)
